Test results reported in US9149038B2, “4-amino-6-(heterocyclic)picolinates and 6-amino-2-(heterocyclic)pyrimidine-4-carboxylates and their use as herbicides” (Dow AgroSciences LLC, priority 2013, dated 2015).
Like-named read-outs stand apart in the source and are kept apart here.

How the values were obtained:
[1] = test system: Key Grass and Sedge Weeds as well as Grass Crops; assay: Post-Emergent Test II: postemergent herbicidal activity, visual rating after 14 d (Table 8); format: in vivo; settings: post-emergence, 336 h; for pest or weed control at 35 g/ha: 35 g ai/ha; for pest or weed control at 70 g/ha: 70 g ai/ha; for pest or weed control at 140 g/ha: 140 g ai/ha
Outline: (§1)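 Post-emergence foliar spray, 187 L/ha, first/second true leaf stage plants in potting mix (pH 6.0-6.8). Rates: top rate and 2-fold serial dilutions to 1/16×. Solvent-blank controls. Readout: visual % kill at 14 d.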

[2] = test system: Key Broadleaf Weed and Crop Species; assay: Post-Emergent Test II: postemergent herbicidal activity, visual rating after 14 d (Table 7); format: in vivo; settings: post-emergence, 336 h; for pest or weed control at 35 g/ha: 35 g ai/ha; for pest or weed control at 70 g/ha: 70 g ai/ha; for pest or weed control at 140 g/ha: 140 g ai/ha
Outline: as §1

[3] = barnyardgrass (Echinochloa crus-galli), read-out: Visual Growth Reduction (%) 14 Days After Application ECHCG
[4] = giant foxtail (Setaria faberi), read-out: Visual Growth Reduction (%) 14 Days After Application SETFA
[5] = maize, corn (Zea mays), read-out: Visual Growth Reduction (%) 14 Days After Application ZEAMX
[6] = rice (Oryza sativa), read-out: Visual Growth Reduction (%) 14 Days After Application ORYSA
[7] = wheat, spring (Triticum aestivum), read-out: Visual Growth Reduction (%) 14 Days After Application TRZAS
[8] = yellow nutsedge (Cyperus esculentus), read-out: Visual Growth Reduction (%) 14 Days After Application CYPES
[9] = lambsquarters (Chenopodium album), read-out: Visual Growth Reduction (%) 14 Days After Application CHEAL
[10] = oilseed rape, canola (Brassica napus), read-out: Visual Growth Reduction (%) 14 Days After Application BRSNN
[11] = redroot pigweed (Amaranthus retroflexus), read-out: Visual Growth Reduction (%) 14 Days After Application AMARE
[12] = sunflower (Helianthus annuus), read-out: Visual Growth Reduction (%) 14 Days After Application HELAN
[13] = velvetleaf (Abutilon theophrasti), read-out: Visual Growth Reduction (%) 14 Days After Application ABUTH
[14] = wild poinsettia (Euphorbia heterophylla), read-out: Visual Growth Reduction (%) 14 Days After Application EPHHL

Q: `Nc1c(F)c(-c2ccc(Br)c3c2OC(F)(F)O3)nc(C(=O)O)c1Cl` [Compound 80] was tested. Which pest or weed control at 35 g/ha [1, 3] did it give?
A: Its pest or weed control at 35 g/ha is 0 to 29%.

Q: And the pest or weed control at 70 g/ha [1, 3]?
A: The pest or weed control at 70 g/ha was 0 to 29%.

Q: What about the pest or weed control at 140 g/ha [1, 3] of the same molecule?
A: The pest or weed control at 140 g/ha was 0 to 29%.

Q: And the pest or weed control at 35 g/ha [1, 4]?
A: The pest or weed control at 35 g/ha was 0 to 29%.

Q: And the pest or weed control at 70 g/ha [1, 4]?
A: Its pest or weed control at 70 g/ha is 0 to 29%.

Q: And the pest or weed control at 140 g/ha [1, 4]?
A: The pest or weed control at 140 g/ha was 0 to 29%.

Q: What about the pest or weed control at 35 g/ha [1, 5] of the same molecule?
A: Its pest or weed control at 35 g/ha is 45 to 59%.

Q: What about the pest or weed control at 70 g/ha [1, 5] of the same molecule?
A: Its pest or weed control at 70 g/ha is 60 to 74%.

Q: And the pest or weed control at 140 g/ha [1, 5]?
A: The pest or weed control at 140 g/ha was 60 to 74%.

Q: And the pest or weed control at 35 g/ha [1, 6]?
A: Its pest or weed control at 35 g/ha is 0 to 29%.

Q: What about the pest or weed control at 70 g/ha [1, 6] of the same molecule?
A: Its pest or weed control at 70 g/ha is 0 to 29%.

Q: What about the pest or weed control at 140 g/ha [1, 6] of the same molecule?
A: Its pest or weed control at 140 g/ha is 0 to 29%.

Q: And the pest or weed control at 35 g/ha [1, 7]?
A: Its pest or weed control at 35 g/ha is 0 to 29%.

Q: What about the pest or weed control at 70 g/ha [1, 7] of the same molecule?
A: Its pest or weed control at 70 g/ha is 0 to 29%.

Q: What about the pest or weed control at 140 g/ha [1, 7] of the same molecule?
A: The pest or weed control at 140 g/ha was 0 to 29%.

Q: And the pest or weed control at 35 g/ha [1, 8]?
A: The pest or weed control at 35 g/ha was 0 to 29%.

Q: And the pest or weed control at 70 g/ha [1, 8]?
A: The pest or weed control at 70 g/ha was 0 to 29%.

Q: And the pest or weed control at 140 g/ha [1, 8]?
A: Its pest or weed control at 140 g/ha is 0 to 29%.

Q: And the pest or weed control at 35 g/ha [2, 9]?
A: Its pest or weed control at 35 g/ha is 95 to 100%.

Q: What about the pest or weed control at 70 g/ha [2, 9] of the same molecule?
A: The pest or weed control at 70 g/ha was 95 to 100%.

Q: What about the pest or weed control at 140 g/ha [2, 9] of the same molecule?
A: Its pest or weed control at 140 g/ha is 95 to 100%.

Q: And the pest or weed control at 35 g/ha [2, 10]?
A: The pest or weed control at 35 g/ha was 85 to 94%.

Q: What about the pest or weed control at 70 g/ha [2, 10] of the same molecule?
A: The pest or weed control at 70 g/ha was 85 to 94%.

Q: And the pest or weed control at 140 g/ha [2, 10]?
A: The pest or weed control at 140 g/ha was 85 to 94%.

Q: What about the pest or weed control at 35 g/ha [2, 11] of the same molecule?
A: The pest or weed control at 35 g/ha was 95 to 100%.

Q: What about the pest or weed control at 70 g/ha [2, 11] of the same molecule?
A: The pest or weed control at 70 g/ha was 95 to 100%.

Q: What about the pest or weed control at 140 g/ha [2, 11] of the same molecule?
A: The pest or weed control at 140 g/ha was 95 to 100%.

Q: And the pest or weed control at 35 g/ha [2, 12]?
A: The pest or weed control at 35 g/ha was 85 to 94%.

Q: And the pest or weed control at 70 g/ha [2, 12]?
A: The pest or weed control at 70 g/ha was 85 to 94%.

Q: What about the pest or weed control at 140 g/ha [2, 12] of the same molecule?
A: The pest or weed control at 140 g/ha was 85 to 94%.

Q: And the pest or weed control at 35 g/ha [2, 13]?
A: Its pest or weed control at 35 g/ha is 60 to 74%.

Q: What about the pest or weed control at 70 g/ha [2, 13] of the same molecule?
A: The pest or weed control at 70 g/ha was 75 to 84%.

Q: What about the pest or weed control at 140 g/ha [2, 13] of the same molecule?
A: The pest or weed control at 140 g/ha was 85 to 94%.

Q: What about the pest or weed control at 35 g/ha [2, 14] of the same molecule?
A: The pest or weed control at 35 g/ha was 0 to 29%.

Q: What about the pest or weed control at 70 g/ha [2, 14] of the same molecule?
A: The pest or weed control at 70 g/ha was 0 to 29%.

Q: And the pest or weed control at 140 g/ha [2, 14]?
A: Its pest or weed control at 140 g/ha is 0 to 29%.

Q: `Nc1c(F)c(-c2ccc(I)c3c2OC(F)(F)O3)nc(C(=O)O)c1Cl` [Compound 81] was tested. Which pest or weed control at 35 g/ha [1, 3] did it give?
A: The pest or weed control at 35 g/ha was 0 to 29%.

Q: And the pest or weed control at 70 g/ha [1, 3]?
A: The pest or weed control at 70 g/ha was 0 to 29%.

Q: What about the pest or weed control at 140 g/ha [1, 3] of the same molecule?
A: The pest or weed control at 140 g/ha was 0 to 29%.

Q: And the pest or weed control at 35 g/ha [1, 4]?
A: The pest or weed control at 35 g/ha was 0 to 29%.

Q: And the pest or weed control at 70 g/ha [1, 4]?
A: Its pest or weed control at 70 g/ha is 0 to 29%.

Q: And the pest or weed control at 140 g/ha [1, 4]?
A: Its pest or weed control at 140 g/ha is 0 to 29%.

Q: What about the pest or weed control at 35 g/ha [1, 5] of the same molecule?
A: The pest or weed control at 35 g/ha was 0 to 29%.

Q: And the pest or weed control at 70 g/ha [1, 5]?
A: Its pest or weed control at 70 g/ha is 0 to 29%.

Q: And the pest or weed control at 140 g/ha [1, 5]?
A: The pest or weed control at 140 g/ha was 0 to 29%.

Q: What about the pest or weed control at 35 g/ha [1, 6] of the same molecule?
A: The pest or weed control at 35 g/ha was 0 to 29%.

Q: And the pest or weed control at 70 g/ha [1, 6]?
A: Its pest or weed control at 70 g/ha is 0 to 29%.

Q: What about the pest or weed control at 140 g/ha [1, 6] of the same molecule?
A: The pest or weed control at 140 g/ha was 0 to 29%.

Q: And the pest or weed control at 35 g/ha [1, 7]?
A: Its pest or weed control at 35 g/ha is 0 to 29%.

Q: What about the pest or weed control at 70 g/ha [1, 7] of the same molecule?
A: Its pest or weed control at 70 g/ha is 0 to 29%.

Q: What about the pest or weed control at 140 g/ha [1, 7] of the same molecule?
A: The pest or weed control at 140 g/ha was 0 to 29%.

Q: And the pest or weed control at 35 g/ha [1, 8]?
A: The pest or weed control at 35 g/ha was 0 to 29%.

Q: What about the pest or weed control at 70 g/ha [1, 8] of the same molecule?
A: The pest or weed control at 70 g/ha was 0 to 29%.

Q: What about the pest or weed control at 140 g/ha [1, 8] of the same molecule?
A: Its pest or weed control at 140 g/ha is 0 to 29%.

Q: What about the pest or weed control at 35 g/ha [2, 9] of the same molecule?
A: Its pest or weed control at 35 g/ha is 85 to 94%.

Q: And the pest or weed control at 70 g/ha [2, 9]?
A: The pest or weed control at 70 g/ha was 85 to 94%.

Q: And the pest or weed control at 140 g/ha [2, 9]?
A: Its pest or weed control at 140 g/ha is 85 to 94%.

Q: What about the pest or weed control at 35 g/ha [2, 10] of the same molecule?
A: Its pest or weed control at 35 g/ha is 75 to 84%.

Q: What about the pest or weed control at 70 g/ha [2, 10] of the same molecule?
A: The pest or weed control at 70 g/ha was 85 to 94%.

Q: What about the pest or weed control at 140 g/ha [2, 10] of the same molecule?
A: The pest or weed control at 140 g/ha was 95 to 100%.

Q: And the pest or weed control at 35 g/ha [2, 11]?
A: Its pest or weed control at 35 g/ha is 95 to 100%.

Q: And the pest or weed control at 70 g/ha [2, 11]?
A: Its pest or weed control at 70 g/ha is 95 to 100%.

Q: What about the pest or weed control at 140 g/ha [2, 11] of the same molecule?
A: The pest or weed control at 140 g/ha was 95 to 100%.

Q: And the pest or weed control at 35 g/ha [2, 12]?
A: The pest or weed control at 35 g/ha was 85 to 94%.

Q: And the pest or weed control at 70 g/ha [2, 12]?
A: The pest or weed control at 70 g/ha was 85 to 94%.

Q: And the pest or weed control at 140 g/ha [2, 12]?
A: The pest or weed control at 140 g/ha was 85 to 94%.

Q: What about the pest or weed control at 35 g/ha [2, 13] of the same molecule?
A: Its pest or weed control at 35 g/ha is 0 to 29%.

Q: And the pest or weed control at 70 g/ha [2, 13]?
A: Its pest or weed control at 70 g/ha is 60 to 74%.

Q: What about the pest or weed control at 140 g/ha [2, 13] of the same molecule?
A: Its pest or weed control at 140 g/ha is 75 to 84%.

Q: And the pest or weed control at 35 g/ha [2, 14]?
A: The pest or weed control at 35 g/ha was 0 to 29%.

Q: And the pest or weed control at 70 g/ha [2, 14]?
A: The pest or weed control at 70 g/ha was 0 to 29%.

Q: And the pest or weed control at 140 g/ha [2, 14]?
A: Its pest or weed control at 140 g/ha is 0 to 29%.
